For data set [1], the system named is Candida albicans. Description: Ratio of fluconazole MIC to compound MIC against amphotericin-B resistant Candida albicans after 24 to 48 hrs by broth microdilution technique. Format: functional. In general terms: Broth dilution looks for growth in wells or tubes with falling amounts of substance.
For data set [2], the system named is Trichophyton mentagrophytes. Briefly: Antifungal activity against Trichophyton mentagrophytes after 72 to 96 hrs by broth microdilution technique. It is filed as functional.
The test system of the next data set is Aspergillus fumigatus. Briefly: Antifungal activity against Aspergillus fumigatus after 72 to 96 hrs by broth microdilution technique. Format: functional.
Data set [3] concerns Candida albicans. Description: Antifungal activity against Candida albicans after 24 to 48 hrs by broth microdilution technique. Format: functional.
Data set [4] deals with L929. Description: Cytotoxicity against mouse L929 cells assessed as morphological changes up to 3.12 ug/ml after 24 hrs by giemsa staining based phase contrast microscopy. The note with it: l929, 24 h. It is filed as cell-based.
For data set [5], the system named is Candida albicans. Description: Anticandidal activity against Candida albicans ATCC14053 after 24 to 48 hrs by broth microdilution technique. Format: functional.
The test system of data set [6] is Candida albicans. Description: Anticandidal activity against amphotericin-B resistant Candida albicans after 24 to 48 hrs by broth microdilution technique. Format: functional.
Data set [7] deals with Candida albicans. Briefly: Anticandidal activity against Candida albicans CDRI after 24 to 48 hrs by broth microdilution technique. It is filed as functional.
The test system of data set [8] is Candida albicans. Description: Anticandidal activity against Candida albicans ATCC10231 after 24 to 48 hrs by broth microdilution technique. Format: functional.
The test system of another data set is Candida parapsilosis. Description: Antifungal activity against Candida parapsilosis ATCC22019 after 24 to 48 hrs by broth microdilution technique. Format: functional. The note with it: Lodderomyces parapsilosis.
A further data set has as its system Cryptococcus neoformans. Description: Antifungal activity against Cryptococcus neoformans after 24 to 48 hrs by broth microdilution technique. It is filed as functional.
Data set [9] relates to Candida albicans. Description: Anticandidal activity against Candida albicans ATCC-MYA 2950 after 24 to 48 hrs by broth microdilution technique. Format: functional.
The test system of data set [10] is L929. Briefly: Cytotoxicity against mouse L929 cells assessed as decline in cell survival at 12.5 to 50 ug/ml after 24 hrs by spectrophotometric analysis. Format: cell-based. The conditions noted are these: l929, 24 h.
Data set [11] concerns Sporothrix schenckii. Description: Antifungal activity against Sporothrix schenckii after 72 to 96 hrs by broth microdilution technique. Format: functional.
Data set [12] deals with Candida albicans. Description: Anticandidal activity against Candida albicans MTCC183 after 24 to 48 hrs by broth microdilution technique. Format: functional.
In data set [13] the test system is Candida albicans. Briefly: Anticandidal activity against Candida albicans isolated from patient after 24 to 48 hrs by broth microdilution technique. It is filed as functional.
The test system of data set [14] is Candida albicans. Briefly: Anticandidal activity against Candida albicans ATCC750 after 24 to 48 hrs by broth microdilution technique. It is filed as functional.
Data set [15] relates to Sporothrix schenckii. Briefly: Ratio of fluconazole MIC to compound MIC against Sporothrix schenckii after 72 to 96 hrs by broth microdilution technique. Format: functional.
Data set [16] concerns Sporothrix schenckii. Briefly: Ratio of clotrimazole MIC to compound MIC against Sporothrix schenckii after 72 to 96 hrs by broth microdilution technique. It is filed as functional.

As a reminder, the MIC is the least concentration at which growth counts as inhibited. Higher therefore signals weaker potency.

Converted amounts (≈) assume the structure as drawn. A value given as a limit tells only on which side of the number the result lay.

As for `CCSC(=S)NCc1ccncc1`, the Ratio with Candida albicans [1] is reported as 5. The minimum inhibitory concentration (MIC) in data set [2] was 3.12 µg/mL (≈ 14.7 µM); in the data set with Aspergillus fumigatus, 50 µg/mL (≈ 235 µM); against Candida albicans [3], 3.12 µg/mL (≈ 14.7 µM); with Candida albicans [5], 3.12 µg/mL (≈ 14.7 µM); in the data set with Candida albicans [6], 1.56 µg/mL (≈ 7.35 µM); in the data set on Candida albicans [7] it was 6.25 µg/mL (≈ 29.4 µM). The MIC amounted to 6.25 µg/mL (≈ 29.4 µM) in the data set on Candida albicans [8]; 3.12 µg/mL (≈ 14.7 µM) in the data set with Candida parapsilosis; 3.12 µg/mL (≈ 14.7 µM) against Cryptococcus neoformans; 12.5 µg/mL (≈ 58.9 µM) in the data set on Candida albicans [9]; 1.56 µg/mL (≈ 7.35 µM) against Sporothrix schenckii [11]; 1.56 µg/mL (≈ 7.35 µM) in the data set with Candida albicans [12]. In addition, the MIC in the data set with Candida albicans [13] and in the data set with Candida albicans [14] was 12.5 µg/mL (≈ 58.9 µM) throughout. The results for the Activity result with L929 [4] and in the data set with L929 [10] were “Non-toxic” and “Toxic”, respectively.

With `CCCSC(=S)NCc1ccncc1`, the values for the Ratio in the data set on Candida albicans [1], in the data set on Sporothrix schenckii [15] and with Sporothrix schenckii [16] were 2, 12 and 12, respectively. In addition, the MIC in data set [2] was 3.12 µg/mL (≈ 13.8 µM); against Aspergillus fumigatus, 50 µg/mL (≈ 221 µM); against Candida albicans [3], 6.25 µg/mL (≈ 27.6 µM); with Candida albicans [5] it was 6.25 µg/mL (≈ 27.6 µM); with Candida albicans [6], 3.12 µg/mL (≈ 13.8 µM); in the data set on Candida albicans [7] it was 6.25 µg/mL (≈ 27.6 µM). Besides, the MIC worked out at 6.25 µg/mL (≈ 27.6 µM) in the data set with Candida albicans [8]; 12.5 µg/mL (≈ 55.2 µM) against Candida parapsilosis; 12.5 µg/mL (≈ 55.2 µM) against Cryptococcus neoformans; 12.5 µg/mL (≈ 55.2 µM) in the data set on Candida albicans [9]; 0.39 µg/mL (≈ 1.72 µM) with Sporothrix schenckii [11]; 1.56 µg/mL (≈ 6.89 µM) in the data set with Candida albicans [12]. Moreover, the MIC in the data set on Candida albicans [13] and against Candida albicans [14] was 12.5 µg/mL (≈ 55.2 µM) in each case. Moreover, the figures for the Activity entry in the data set with L929 [4] and in the data set on L929 [10] were “Non-toxic” and “Toxic”, respectively.

`CCCCSC(=S)NCc1ccncc1`: in the data set on Candida albicans [1], the Ratio is given as 5. In addition, the MIC turned out to be 3.12 µg/mL (≈ 13 µM) in data set [2]; 50 µg/mL (≈ 208 µM) with Aspergillus fumigatus; 3.12 µg/mL (≈ 13 µM) with Candida albicans [3]; 3.12 µg/mL (≈ 13 µM) against Candida albicans [5]; 1.56 µg/mL (≈ 6.49 µM) with Candida albicans [6]; 12.5 µg/mL (≈ 52 µM) in the data set with Candida albicans [7]. For the same compound, the MIC is 6.25 µg/mL (≈ 26 µM) in the data set with Candida albicans [8]; 6.25 µg/mL (≈ 26 µM) in the data set on Candida parapsilosis; 3.12 µg/mL (≈ 13 µM) against Cryptococcus neoformans; 12.5 µg/mL (≈ 52 µM) in the data set on Candida albicans [9]; 3.12 µg/mL (≈ 13 µM) against Sporothrix schenckii [11]; 1.56 µg/mL (≈ 6.49 µM) in the data set on Candida albicans [12]. The MIC against Candida albicans [13] and against Candida albicans [14] was 12.5 µg/mL (≈ 52 µM) throughout. The figures for the Activity entry in the data set with L929 [4] and in the data set on L929 [10] were “Non-toxic” and “Toxic”, respectively.

In the case of `C=CCSC(=S)NCc1ccncc1`, the Ratio in the data set with Candida albicans [1] is listed as 1; with Sporothrix schenckii [15], 12; in the data set with Sporothrix schenckii [16], 12. In addition, the minimum inhibitory concentration (MIC) was 3.12 µg/mL (≈ 13.9 µM) in data set [2]; 25 µg/mL (≈ 111 µM) in the data set with Aspergillus fumigatus; 1.56 µg/mL (≈ 6.95 µM) in the data set with Candida albicans [3]; 0.78 µg/mL (≈ 3.48 µM) against Candida albicans [5]; 6.25 µg/mL (≈ 27.9 µM) in the data set on Candida albicans [6]; 1.56 µg/mL (≈ 6.95 µM) with Candida albicans [7]. Moreover, the minimum inhibitory concentration (MIC) turned out to be 1.56 µg/mL (≈ 6.95 µM) in the data set on Candida albicans [8]; 1.56 µg/mL (≈ 6.95 µM) against Candida parapsilosis; 3.12 µg/mL (≈ 13.9 µM) in the data set on Cryptococcus neoformans; 1.56 µg/mL (≈ 6.95 µM) in the data set on Candida albicans [9]; 0.39 µg/mL (≈ 1.74 µM) in the data set on Sporothrix schenckii [11]; 0.78 µg/mL (≈ 3.48 µM) with Candida albicans [12]. Also, the MIC stood at 1.56 µg/mL (≈ 6.95 µM) with Candida albicans [13] and 3.12 µg/mL (≈ 13.9 µM) against Candida albicans [14]. The Activity result is on record as “Non-toxic” in the data set with L929 [4] and “Toxic” with L929 [10].

Turning to `O=C1CSC(=S)N1Cc1ccncc1`, the Ratio with Candida albicans [1] was found to be 2. Further, the MIC worked out at 3.12 µg/mL (≈ 13.9 µM) in [2]; 12.5 µg/mL (≈ 55.7 µM) with Aspergillus fumigatus; 1.56 µg/mL (≈ 6.95 µM) against Candida albicans [3]; 1.56 µg/mL (≈ 6.95 µM) in the data set on Candida albicans [5]; 3.12 µg/mL (≈ 13.9 µM) in the data set on Candida albicans [6]; 6.25 µg/mL (≈ 27.9 µM) with Candida albicans [7]. For the same compound, the minimum inhibitory concentration (MIC) worked out at 6.25 µg/mL (≈ 27.9 µM) against Candida albicans [8]; 6.25 µg/mL (≈ 27.9 µM) in the data set with Candida parapsilosis; 6.25 µg/mL (≈ 27.9 µM) against Cryptococcus neoformans; 6.25 µg/mL (≈ 27.9 µM) against Candida albicans [9]; 1.56 µg/mL (≈ 6.95 µM) against Sporothrix schenckii [11]; 0.78 µg/mL (≈ 3.48 µM) against Candida albicans [12]. In addition, the MIC with Candida albicans [13] and against Candida albicans [14] was 6.25 µg/mL (≈ 27.9 µM) each time. The values for the Activity result in the data set on L929 [4] and in the data set on L929 [10] were “Non-toxic” and “Toxic”, respectively.

As to `O=C1/C(=C/c2ccc(F)cc2)SC(=S)N1Cc1ccncc1`, the MIC in data set [2] is 3.12 µg/mL (≈ 9.44 µM); in the data set with Aspergillus fumigatus it was over 50 µg/mL; against Candida albicans [3] it was 12.5 µg/mL (≈ 37.8 µM); with Candida parapsilosis, 25 µg/mL (≈ 75.7 µM); against Cryptococcus neoformans, 25 µg/mL (≈ 75.7 µM); against Sporothrix schenckii [11], 0.39 µg/mL (≈ 1.18 µM). Besides, the Ratio in the data set with Sporothrix schenckii [15] and with Sporothrix schenckii [16] was 12 throughout. Moreover, the figures for the Activity result in the data set on L929 [4] and with L929 [10] were “Non-toxic” and “Toxic”, respectively.

In the case of `O=C1/C(=C/c2ccncc2)SC(=S)N1Cc1ccncc1`, the Ratio in the data set on Candida albicans [1] was found to be 2. The MIC in [2] came out at 3.12 µg/mL (≈ 9.96 µM); in the data set with Aspergillus fumigatus, 25 µg/mL (≈ 79.8 µM); in the data set with Candida albicans [3], 1.56 µg/mL (≈ 4.98 µM); with Candida albicans [5], 6.25 µg/mL (≈ 19.9 µM); in the data set with Candida albicans [6], 3.12 µg/mL (≈ 9.96 µM); with Candida albicans [7], 3.12 µg/mL (≈ 9.96 µM). The MIC was found to be 1.56 µg/mL (≈ 4.98 µM) in the data set with Candida albicans [8]; 1.56 µg/mL (≈ 4.98 µM) against Candida parapsilosis; 1.56 µg/mL (≈ 4.98 µM) against Cryptococcus neoformans; 1.56 µg/mL (≈ 4.98 µM) in the data set with Candida albicans [9]; 3.12 µg/mL (≈ 9.96 µM) against Sporothrix schenckii [11]; 0.78 µg/mL (≈ 2.49 µM) against Candida albicans [12]. The MIC against Candida albicans [13] amounted to 3.12 µg/mL (≈ 9.96 µM); in the data set on Candida albicans [14] it was 6.25 µg/mL (≈ 19.9 µM). For the same compound, the Activity entry was “Non-toxic” in the data set on L929 [4] and “Toxic” in the data set on L929 [10].

The values above are taken from ChEMBL document CHEMBL3217590, “Discovery of a new class of dithiocarbamates and rhodanine scaffolds as potent antifungal agents: synthesis, biology and molecular docking” (Medchemcomm, 2012).
